The record followed here is US20220041606A1, “POSITIVE ALLOSTERIC MODULATORS OF THE MUSCARINIC ACETYLCHOLINE RECEPTOR M1” (Vanderbilt University, priority 2020, published 2022).

Assay [1] concerns the target T1, human mAChR M1 (Homo sapiens, UniProt P11229).
T1 construct: host or cells: CHO-K1 cells (ATCC), stably transfected using Lipofectamine2000
T1 sequence (P11229 1-460): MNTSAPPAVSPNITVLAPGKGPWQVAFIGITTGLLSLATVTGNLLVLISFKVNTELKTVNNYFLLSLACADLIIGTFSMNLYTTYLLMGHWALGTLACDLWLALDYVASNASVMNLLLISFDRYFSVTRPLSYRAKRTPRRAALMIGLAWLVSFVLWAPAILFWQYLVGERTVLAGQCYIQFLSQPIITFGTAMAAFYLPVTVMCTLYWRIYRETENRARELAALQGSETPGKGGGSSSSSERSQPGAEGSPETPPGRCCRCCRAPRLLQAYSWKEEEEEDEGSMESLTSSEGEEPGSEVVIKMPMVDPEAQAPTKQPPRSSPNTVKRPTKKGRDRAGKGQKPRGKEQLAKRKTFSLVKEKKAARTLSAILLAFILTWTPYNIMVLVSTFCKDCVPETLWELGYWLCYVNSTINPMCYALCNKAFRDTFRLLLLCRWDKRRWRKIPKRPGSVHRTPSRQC
Kind of assay: mAChR M1 cell-based functional assay (calcium mobilization), PAM activity: increase in the EC20 acetylcholine response. Conditions: CHO-K1 cells expressing hM1; potentiation of EC20 acetylcholine response. The source says:
(§1) Chinese hamster ovary (CHO-K1) cells stably expressing rat (r)M1 were purchased from the American Type Culture Collection and cultured according to their indicated protocol. CHO cells stably expressing human (h)M2, hM3, and hM5 were described previously (Levey, et al., 1991); hM1 and hM4 cDNAs were purchased from Missouri S&T cDNA Resource; rM4 cDNA was provided by T. L. Bonner (National Institutes of Health, Bethesda, MID). rM2 and rM3 were cloned from a rat brain cDNA library and sequence verified. hM1, rM2, rM3, hM4, and rM4 cDNAs were used to stably transfect CHO-K1 cells purchased from the American Type Culture Collection using Lipofectamine2000. To make stable rM2, hM2, rM3, hM4, and rM4 cell lines for use in calcium mobilization assays, these cells also were stably transfected with a chimeric G-protein (Gqi5) (provided by B. R. Conklin, University of California, San Francisco) using Lipofectamine 2000. rM1, hM1, rM3, hM3, rM5, and hM5 cells were grown in Ham's F-12 medium containing 10% heat-inactivated fetal bovine serum (FBS), 20 mM HEPES, and 50 μg/mL G418 sulfate. rM2-Gq15, hM2-Gqi5, and hM4-Gqi5 cells were grown in the same medium also containing 500 μg/mL Hygromycin B. Stable rM4-Gqi5 cells were grown in DMEM containing 10% heat-inactivated FBS, 20 mM HEPES, 400 μg/mL G418 sulfate, and 500 μg/mL Hygromycin B.
(§2) For high throughput measurement of agonist-evoked increases in intracellular calcium, CHO-K1 cells stably expressing muscarinic receptors were plated in growth medium lacking G418 and hygromycin at 15,000 cells/20 μL/well in Greiner 384-well black-walled, tissue culture (TC)-treated, clear-bottom plates (VWR). Cells were incubated overnight at 37° C. and 5% CO2. The next day, cells were washed using an ELX 405 (BioTek) with four washes (80 μL) of assay buffer then aspirated to 20 μL. Next, 20 μL of 16 μM Fluo-4/acetoxymethyl ester (Invitrogen, Carlsbad, Calif.) prepared as a 2.3 mM stock in DMSO and mixed in a 1:1 ratio with 10% (w/v) Pluronic F-127 and diluted in assay buffer was added to the wells and the cell plates were incubated for 50 min at 37° C. and 5% CO2. Dye was removed by washing with the ELX 405 (four 80 μL washes of assay buffer) then aspirated to 20 μL. Compound master plates were formatted in an 11 point CRC format (1:3 dilutions) in 100% DMSO with a starting concentration of 10 mM using the BRAVO liquid handler (Agilent). Test compound CRCs were then transferred to daughter plates (240 nL) using the Echo acoustic plate reformatter (Labcyte, Sunnyvale, Calif.) and then diluted into assay buffer (40 μL) to a 2× stock using a Thermo Fisher Combi (Thermo Fisher Scientific, Waltham, Mass.).
(§3) Calcium flux was measured using the Functional Drug Screening System (FDSS) 6000 (Hamamatsu Corporation, Tokyo, Japan) as an increase in the fluorescent static ratio. Compounds were applied to cells (20 μL, 2×) using the automated system of the FDSS 6000 at 4 s into the 300 s protocol and the data were collected at 1 Hz. At 144 s into the 300s protocol, 10 μL of an EC20 concentration of the muscarinic receptor agonist acetylcholine was added (5×), followed by the addition of 12 μL an EC80 concentration of acetylcholine at the 230 s time point (5×). Agonist activity was analyzed as a concentration-dependent increase in calcium mobilization upon compound addition. Emax values for agonist activity are expressed relative to the maximum for acetylcholine. Positive allosteric modulator activity was analyzed as a concentration-dependent increase in the EC20 acetylcholine response. Antagonist activity was analyzed as a concentration-dependent decrease in the EC80 acetylcholine response. Concentration-response curves were generated using a four-parameter logistical equation in XLfit curve fitting software (IDBS, Bridgewater, N.J.) for Excel (Microsoft, Redmond, Wash.) or Prism (GraphPad Software, Inc., San Diego, Calif.). […]
(Calcium flux is commonly read through the fluorescence of an indicator in the cells.)

Assay [2] addresses T1, human mAChR M1. Description: mAChR M1 cell-based functional assay (calcium mobilization), agonist activity upon compound addition. Conditions: CHO-K1 cells expressing hM1; for pEC50: compound alone, before acetylcholine addition; for Emax: relative to the maximum for acetylcholine.
Excerpt: as §1, §2, §3

pEC50: −log10 of the molar value.

Regarding `Cn1cc2c(-c3cc(F)c(Cn4cc(C(=O)N[C@H]5CCOC[C@@H]5O)c5sccc5c4=O)c(F)c3)cccc2n1` [Compound D30, 5-(2,6-difluoro-4-(2-methyl-2H-indazol-4-yl)benzyl)-N-((3R,4S)-3-hydroxytetrahydro-2H-pyran-4-yl)-4-oxo-4,5-dihydrothieno[3,2-c]pyridine-7-carboxamide], on human mAChR M1 [1], the pEC50 (commonly the negative decadic logarithm of the EC50, by convention in mol/L) was 5.34 and the Emax (as a rule, the greatest response seen or fitted, relative to the assay's reference) was found to be 69%. Moreover, at human mAChR M1 [2], the pEC50 was less than 5.00 and the Emax is less than 5%.

For `Cn1nccc1-c1ccc(Cn2cc(C(=O)N[C@H]3CCCC[C@@H]3O)c3nccn3c2=O)c(F)c1` [Compound B32, 6-(2-fluoro-4-(1-methyl-1H-pyrazol-5-yl)benzyl)-N-((1S,2S)-2-hydroxycyclohexyl)-5-oxo-5,6-dihydroimidazo[1,2-c]pyrimidine-8-carboxamide], at human mAChR M1 [1], the pEC50 is 6.05 and the Emax was 80%. On human mAChR M1 [2], the pEC50 is less than 5.00 and the Emax is less than 5%.

Consider `Cc1ncc(-c2cc(F)c(Cn3cc(C(=O)N[C@H]4CCOC[C@@H]4O)c4ncccc4c3=O)c(F)c2)s1` [Compound A51, 6-(2,6-difluoro-4-(2-methylthiazol-5-yl)benzyl)-N-((3R,4S)-3-hydroxytetrahydro-2H-pyran-4-yl)-5-oxo-5,6-dihydro-1,6-naphthyridine-8-carboxamide], for which, on human mAChR M1 [1], the negative logarithm of the EC50 (pEC50) was 5.77 and the Emax worked out at 75%. Also, on human mAChR M1 [2], the negative logarithm of the EC50 (pEC50) was less than 5.00 and the Emax was less than 5%.

As to `O=C(N[C@H]1CCC[C@@H]1O)c1cn(Cc2ccc(-n3cccn3)cc2)c(=O)c2ccoc12` [Compound D4, 5-(4-(1H-pyrazol-1-yl)benzyl)-N-((1S,2S)-2-hydroxycyclopentyl)-4-oxo-4,5-dihydrofuro[3,2-c]pyridine-7-carboxamide], on human mAChR M1 [1], the pEC50 is less than 5.00 and the Emax came to 34%. Moreover, at human mAChR M1 [2], the pEC50 was less than 5.00 and the Emax was less than 5%.

In the case of `Cn1cc(-c2ccc(Cn3cc(C(=O)N[C@H]4CCCC[C@@H]4O)c4nccn4c3=O)cn2)cn1` [Compound B11, N-((1S,2S)-2-hydroxycyclohexyl)-6-((6-(1-methyl-1H-pyrazol-4-yl)pyridin-3-yl)methyl)-5-oxo-5,6-dihydroimidazo[1,2-c]pyrimidine-8-carboxamide], at human mAChR M1 [1], the pEC50 is 6.68 and the Emax came out at 63%. In addition, on human mAChR M1 [2], the negative logarithm of the EC50 (pEC50) is 5.30 and the Emax was found to be 45%.

Regarding `Cn1cc(-c2ccc(Cn3cc(C(=O)N[C@H]4CCOC[C@@H]4O)c4occc4c3=O)c(F)c2)cn1` [Compound D12, 5-(2-fluoro-4-(1-methyl-1H-pyrazol-4-yl)benzyl)-N-((3R,4S)-3-hydroxytetrahydro-2H-pyran-4-yl)-4-oxo-4,5-dihydrofuro[3,2-c]pyridine-7-carboxamide], the pEC50 was 5.40 at human mAChR M1 [1] and less than 5.00 on human mAChR M1 [2]. Further, the maximum response (Emax) is 67% on human mAChR M1 [1] and less than 5% at human mAChR M1 [2].

With `Cn1cc2c(-c3cc(F)c(Cn4cc(C(=O)NC5CCOCC5)c5occc5c4=O)c(F)c3)cccc2n1` [Compound D23, 5-(2,6-difluoro-4-(2-methyl-2H-indazol-4-yl)benzyl)-4-oxo-N-(tetrahydro-2H-pyran-4-yl)-4,5-dihydrofuro[3,2-c]pyridine-7-carboxamide], the pEC50 at human mAChR M1 [1] was 5.39; on human mAChR M1 [2], less than 5.00. The values for the maximal effect (Emax) on human mAChR M1 [1] and on human mAChR M1 [2] were 64% and less than 5%, respectively.

Take `Cn1cc2c(-c3cc(F)c(Cn4cc(C(=O)N[C@H]5CCCCC[C@@H]5O)c5ncccc5c4=O)c(F)c3)cccc2n1` [Compound A23, 6-(2,6-difluoro-4-(2-methyl-2H-indazol-4-yl)benzyl)-N-((1S,2S)-2-hydroxycycloheptyl)-5-oxo-5,6-dihydro-1,6-naphthyridine-8-carboxamide]: the pEC50 at human mAChR M1 [1] was 6.68; at human mAChR M1 [2] it was less than 5.00. Moreover, the Emax at human mAChR M1 [1] is 67%; at human mAChR M1 [2], less than 5%.
